Tests used:
Assay type in all cases: functional
Conditions in all cases: read-out: ED50 (the source's name)
MCF7 = assay: Cytotoxicity against human MCF7 cells
A549 = assay: Cytotoxicity against human A549 cells
HT-29 = assay: Cytotoxicity against human HT-29 cells

Measured: EC50

CC(=O)NC[C@@H]1C(=O)O[C@H]2[C@H]1[C@@H](O)C/C(C)=C/CC[C@@]1(C)O[C@@H]21
> 100 µg/mL: MCF7 | A549 | HT-29

CC(=O)NC[C@@H]1C(=O)O[C@H]2[C@H]1CC/C(C)=C/CC[C@@]1(C)O[C@@H]21
> 100 µg/mL: MCF7 | A549 | HT-29
